Source: ChEMBL document CHEMBL4017441, “Mitigating the inhibition of human bile salt export pump by drugs: opportunities provided by physicochemical property modulation, in silico modeling, and structural modification” (Drug Metab Dispos, 2012)

Molecular target: Bile salt export pump (Homo sapiens, UniProt O95342)
Type: ADME

| SMILES | IC50 [µM] |
| --- | --- |
| O=S(=O)(CCOCCc1ccccc1)NCCNCCc1ccc(O)c2nc(O)sc12 | 35.7 |
| C[C@@H](COc1ccc(N2CCN(c3ccncc3)CC2)cc1)CC(=O)O | > 1000 |
| CCCc1c2nc(C(=O)O)cc(C(F)(F)F)c2cc2c(=O)cc(C(=O)O)oc12 | 365 |
| CCCc1c2nc(C(=O)O)cc(O)c2cc2c(=O)cc(C(=O)O)oc12 | > 1000 |
| CCCc1c2nc(C(=O)O)cc(N(C)C(C)=O)c2cc2c(=O)cc(C(=O)O)oc12 | > 1000 |
| CN(C)C(=O)c1ccc(S(=O)(=O)c2ccc(NC(=O)[C@@](C)(O)C(F)(F)F)c(Cl)c2)cc1 | < 12.8 |
| CC1=C(CC(=O)O)c2cc(F)ccc2/C1=C\c1ccc([S+](C)[O-])cc1 (configuration not stated) | 63.7 |
| CCOC(=O)[C@H](CCc1ccccc1)N[C@@H](C)C(=O)N1Cc2ccccc2C[C@H]1C(=O)O | 15.5 |
| COC(=O)[C@H](Cc1ccccc1)NC(=O)[C@@H](N)CC(=O)O | > 1000 |
| CCS(=O)(=O)c1ccc(-c2cc(Cl)ccc2OCC(=O)O)c(F)c1 | 168 |
| CCS[C@]1(SC)CC[C@H]2[C@@H]3CCC4=CC(=O)C=C[C@]4(C)[C@@]3(F)[C@@H](O)C[C@@]21C | < 10 |
| CCCc1nn(C)c2c(=O)[nH]c(-c3cc(S(=O)(=O)N4CCN(C)CC4)ccc3OCC)nc12 | 16.4 |
| Cc1ccc2c(c1)c(-c1ccnc3c(C)cccc13)c(C)n2CC(=O)O | < 10 |
| CCCCCC(O)C1C(=O)OC(C)C(O)/C=C/C=C/C=C/C=C/C=C(/C)C(O)CC(O)CC(O)CC(O)CC(O)CC(O)CC1O (configuration not stated) | 164 |
| CC(=O)NS(=O)(=O)c1ccc(NC(=O)c2ccccc2C(=O)O)cc1 | > 1000 |
| CN1CCN(c2ccccc2/C=C2/SCCN(c3ccc(Cl)c(Cl)c3)C2=O)CC1 | < 10 |
| Cc1ccc2c(c1)c(-c1ccnc3c(C(F)(F)F)cccc13)c(C)n2CC(=O)O | < 10 |
| CNC[C@H](O)Cc1ccc(Cl)c(C(=O)NCC23CC4CC(CC(C4)C2)C3)c1 | 133 |
| Cc1cc(-c2ccc(N3C[C@H](Cn4ccnn4)OC3=O)cc2F)on1 | > 1000 |
| Nc1ccccc1C(=O)NCC(=O)O | > 1000 |
| COc1ccccc1N1CCN(CCCNc2cc(=O)n(C)c(=O)n2C)CC1 | < 11.3 |
| Nc1ccc([As](=O)(O)O)cc1 | > 1000 |
| O=c1[nH]c2c(O)ccc(CCNCCCS(=O)(=O)CCCOCCc3ccccc3)c2s1 | 32.4 |

| SMILES | IC50 [µM] |
| --- | --- |
| CCCSc1nc(N)c2ncn([C@@H]3O[C@H](COP(=O)(O)OP(=O)(O)C(Cl)(Cl)P(=O)(O)O)[C@@H](O)[C@H]3O)c2n1 | > 1000 |
| CO[C@H]1/C=C/O[C@@]2(C)Oc3c(C)c(O)c4c(O)c(c(/C=N/N5CCN(C)CC5)c(O)c4c3C2=O)NC(=O)/C(C)=C\C=C\[C@H](C)[C@H](O)[C@@H](C)[C@@H](O)[C@H](C)[C@H](OC(C)=O)[C@H]1C | < 10 |
| NC(=O)CN1CCCC1=O | > 1000 |
| Cc1n[nH]c(C)c1Cc1sc2c(c1C(=O)N1C[C@H](O)CO1)c(=O)n(C)c(=O)n2CC(C)C | 248 |
| Cc1ccc2c(c1)c(-c1ccnc3c(Cl)cccc13)c(C)n2CC(=O)O | < 10 |
| COc1nc(C)cnc1NS(=O)(=O)c1cccnc1-c1ccc(CC(C)C)cc1 | 19.5 |
| CS(=O)(=O)Oc1ccc(OCCc2ccc(C[C@H](SCCc3ccc(O)cc3)C(=O)O)cc2)cc1 | < 13.4 |
| CCCc1ncc(-c2ccnc(Nc3ccc(S(=O)(=O)NCCOC)cc3)n2)n1C(C)C | < 10 |
| NS(=O)(=O)c1ccc(-c2ccc(OC[C@H](O)CCc3cccnc3)cc2)s1 | > 1000 |
| CC1(C)COC(=O)C1O (configuration not stated) | > 1000 |
| Cc1ccc(OC(C)(C)[C@H]2OC[C@@H](C/C=C\CCC(=O)O)[C@@H](c3cccnc3)O2)c(C#N)c1 | < 10 |
| COc1ccnc(-c2cccc(C)c2[S+]([O-])c2nc3ccccc3[nH]2)c1 (configuration not stated) | < 10 |
| CC(=O)Nc1ccccc1OC[C@@H](O)CNC1CCN(Cc2ccc(Cl)cc2)CC1 | 55.6 |
| COc1ccc(Nc2ccn(-c3ccccc3)n2)cc1 | 23 |
| CCC(=O)OC(OP(=O)(CCCCc1ccccc1)CC(=O)N1CC(C2CCCCC2)CC1C(=O)O)C(C)C (configuration not stated) | < 13.3 |
| CCOCCNS(=O)(=O)c1ccc(Nc2nccc(-c3cnc(C)n3C(C)C)n2)cc1 | < 10 |
| CC(=O)Nc1ccccc1OC[C@@](C)(O)CNC1CCN(Cc2ccc(Cl)cc2)CC1 | 71.5 |
| O=CN(O)[C@@H](CCCc1ncccn1)CS(=O)(=O)N1CCN(c2ccc(Cl)cn2)CC1 | < 10 |
| Cc1ccc(NC(=O)c2cccc3c2oc2ccccc23)cc1NC(=O)c1cccc(CN2CCN(C)CC2)c1 | < 10 |
| C/C(=N\OC(C)(C)C(=O)O)c1csc(N)n1 | > 1000 |
| Cc1ccc(NC(=O)c2cccc(-c3ccco3)c2)cc1-n1cnc2ccc(N3CCN(C)CC3)cc2c1=O | < 10 |
| CN[C@H]1C(O[C@H]2C(OC3C(O)C(O)C(NC(=N)N)C(O)C3NC(=N)N)OC(C)[C@]2(O)C=O)O[C@H](CO)[C@@H](O)[C@@H]1O (some centres not stated) | > 1000 |
| C[C@H](CC(=O)Nc1c(Cl)ccc2nc(N3CC[C@H](N)C3)ccc12)c1ccccc1 | < 27 |

| SMILES | IC50 [µM] |
| --- | --- |
| Cc1ccc(CCCN[C@H](C)CO)cc1C(=O)NCC12CC3CC(CC(C3)C1)C2 | 65.6 |
| COc1ccc2c(c1)CC[C@@H]1[C@@H]2CC[C@@]2(C)[C@H]1CC[C@@]2(O)C#N | < 10 |
| Nc1ccc(CN2C(=O)C(Nc3ccc(N4CCOCC4)cc3)=C(c3ccccc3)C2=O)cn1 | < 10 |
| CCCc1ncc(-c2ccnc(Nc3ccc(S(=O)(=O)NCCOC)cc3)n2)n1CC | < 10 |
| CC[C@H]1OC(=O)[C@H](C)[C@H](O[C@H]2C[C@@](C)(OC)[C@@H](O)[C@H](C)O2)[C@@H](C)[C@@H](O[C@@H]2O[C@H](C)C[C@H](N(C)C)[C@H]2O)[C@@](C)(OC)C[C@@H](C)C(=O)[C@H](C)[C@H](O)[C@]1(C)O | < 12.9 |
| O=C(O)c1cc2sccc2n1Cc1ccc(Cl)c(Cl)c1 | 13.7 |
| O=C(c1ccc(-c2ccncc2)cc1)N1CCN(S(=O)(=O)c2cc3cc(Cl)ccc3[nH]2)CC1 | < 10 |
| Cc1n[nH]c(C)c1Cc1sc2c(c1C(=O)N1C[C@H](O)CO1)c(=O)n(C)c(=O)n2C(C)C | 703 |
| N[C@H]1CCN(c2ccc3c(C(=O)NCC4CCCCC4)c(Cl)ccc3n2)C1 | 107 |
| CC(=O)Oc1c(C)cc(Nc2ccn(-c3ccccc3)n2)cc1C | < 10 |
| CN(C)c1ncnc2c1ncn2C1OC(CO)C(N)C1O (configuration not stated) | > 1000 |
| O=C(O)c1cc2cc(O)ccc2n1Cc1ccc(Cl)c(C(F)(F)F)c1 | 18.5 |
| COc1ccc(-n2[nH]c(=O)c3[nH]c4cc(Cl)ccc4c(=O)c3c2=O)c(C)c1 | 490 |
| Cc1cc2cc(C(=O)NC3Cc4ccccc4N(C[C@@H](O)CO)C3=O)[nH]c2s1 (some centres not stated) | < 11 |
| CCc1cccc(C)c1CNC1=C2NC(C)=C(C)N2CC(C(N)=O)=C1 | < 10 |
| CCN(CC)C(=O)c1ccc(C(=C2CCNCC2)c2ccccc2)cc1 | 106 |
| CC1=C(C/C=C(\C)CCCC(C)CCCC(C)CCCC(C)C)C(=O)c2ccccc2C1=O (configuration not stated) | > 1000 |
| Cc1ccc(C(=O)N2CC3CNCC(C2)O3)cc1NC(=O)CC12CC3CC(CC(C3)C1)C2 | 59.5 |
| O=C(NCCc1ccccc1Cl)c1cc(-n2ncc(=O)[nH]c2=O)ccc1Cl | 34.4 |
| CCCSc1nc(N)c2ncn([C@@H]3O[C@H](CO)[C@@H](O)[C@H]3O)c2n1 | > 1000 |
| CC(C)(C)C(=O)Oc1ccc(S(=O)(=O)Nc2ccccc2C(=O)NCC(=O)O)cc1 | 142 |
